Several values for one entry are separate records, joined by “and”; a condition that tells them apart may be missing. Identical values can stand only once. Like-named read-outs stand apart in the source and are kept apart here.
Columns and labels:
[1] = system: MERS-CoV pseudovirus; assay: microbe, parasite or virus in culture; assay type: cell-based; details: Middle East respiratory syndrome-related coronavirus, Huh-7, read-out: MERS-CoV pseudovirus inhibitory activity IC50
[2] = Pharmacokinetic study in CD-1 mice (gavage, intravenous, intraperitoneal); assay type: in vivo; details: 20 mg/kg; for Cmax / Tmax / half-life / AUC(0-inf) / AUC(0-t) / MRT inf: male, CD-1, mouse, plasma; for AUC(0-inf): read-out: AUC INF_obs; for MRT inf: read-out: MRT INF_obs
Description: Nine CD-1 mice, male, weighing 18-22 g, were randomly divided into 3 groups with 3 mice in each group. The test compounds were administered by gavage, intravenously and intraperitoneally according to the following schemes.
Before the test, they were fasted for 12 hours and were allowed to drink water freely, and were fed uniformly 2 h after administration.
There were 3 animals at each time point.
The solution for gavage administration was formulated with DMSO/0.5% HPMC (5/95, v/v) into the final concentration. Intravenous and intraperitoneal administration were formulated with DMSO/PEG300/EtOH/NaCl (5/40/5/50, v/v/v). Retention samples of the dosing solution (50 μL of the drug solution was taken and mixed well with 50 μL of DMSO before and after the administration) for testing.
The drug was administered according to the above dosage, the time of administration were recorded, and 20 μL of blood was collected from the mouse femoral plexus at the above set time point and placed in a heparinized test tube and centrifuged immediately at 11000 rpm for 5 min. 10 μL of plasma was immediately and accurately drawn into a centrifuge tube pre-filled with 100 μL of PK-IS solution (prepared with methanol:acetonitrile (1:1, v/v)), mixed well, and frozen to store at −20° C. for testing.

[3] = i.p. (20 mg/Kg per Table 3), individual animal
[4] = ip, i.p. (20 mg/Kg per Table 3), Mean of 3 mice
[5] = ip, i.p. (20 mg/Kg per Table 3), Mean of 3 mice, read-out: AUC last (exposure for intraperitoneal injection)
[6] = ip, i.p. (20 mg/Kg per Table 3), individual animal
[7] = ip, i.p. (20 mg/Kg per Table 3), individual animal, read-out: AUC last
[8] = po, p.o. (gavage 20 mg/Kg per Table 3), Mean of 3 mice
[9] = po, p.o. (gavage 20 mg/Kg per Table 3), Mean of 3 mice, read-out: AUC last (oral exposure)
[10] = po, p.o. (gavage 20 mg/Kg per Table 3), individual animal
[11] = po, p.o. (gavage 20 mg/Kg per Table 3), individual animal, read-out: AUC last
[12] = p.o. (gavage 20 mg/Kg per Table 3), individual animal

Row | SMILES | IC50 [1] | AUC INF_obs [2, 3] | AUC last [2, 3] | C max [2, 3] | MRT INF_obs [2, 3] | T1/2 [2, 3] | Cmax [2, 4] | Tmax [2, 4] | half-life [2, 4] | AUC(0-inf) [2, 4] | MRT inf [2, 4] | Cmax [2, 6] | half-life [2, 6] | AUC(0-inf) [2, 6] | AUC(0-t) [2, 7] | Cmax [2, 8] | Tmax [2, 8] | half-life [2, 8] | AUC(0-inf) [2, 8] | AUC(0-t) [2, 9] | also measured
1 | Cc1cnc(C(=O)N[C@@H](CC2CCCCC2)C(=O)N[C@@H](C[C@@H]2CCNC2=O)C(=O)C(=O)NCc2ccccc2)o1 [Example A242, N—((S)-1-(((S)-4-(benzylamino)-3,4-dione-1-((S)-2-oxopyrrolidine-3-yl)but-2-yl)amino)-3-cyclohexyl-1-oxopropan-2-yl)-5-methyloxazole-2-carboxamide] | 2.2 ± 0.8 nM | 5808 ng·h/mL and 6750 ng·h/mL | 5779 ng·h/mL and 6628 ng·h/mL | 4739 ng/mL and 5334 ng/mL | 1.85 h and 2.45 h | 4.37 h and 6.75 h | 5490 ng/mL | 0.25 h | 5.32 h | 6960 ng·h/mL | 2.07 h | 6400 ng/mL | 4.85 h | 8320 ng·h/mL | 8260 ng·h/mL | 409 ng/mL | 0.25 h | 4.51 h | 493 ng·h/mL | 488 ng·h/mL | AUC(0-t) [2, 5]: 6890 ng·h/mL; Tmax [2, 6]: 0.25 h; MRT inf [2, 6]: 1.92 h; MRT inf [2, 8]: 2.56 h; Tmax [2, 10]: 0.25 h; half-life [2, 10]: 4 h; AUC(0-inf) [2, 10]: 436 ng·h/mL; AUC(0-t) [2, 11]: 434 ng·h/mL; MRT inf [2, 10]: 2.13 h; AUC INF_obs [2, 12]: 413 ng·h/mL and 629 ng·h/mL; AUC last [2, 12]: 409 ng·h/mL and 622 ng·h/mL; C max [2, 12]: 499 ng/mL and 247 ng/mL and 482 ng/mL; MRT INF_obs [2, 12]: 2.84 h and 2.71 h; T1/2 [2, 12]: 4.63 h and 4.91 h
2 | Cc1cnc(C(=O)N[C@@H](CC2CCCCC2)C(=O)N[C@@H](C[C@@H]2CCCNC2=O)C(=O)C(=O)NCc2ccccc2)o1 [Example A241] | 2.5 ± 1.3 nM | 3524 ng·h/mL and 4121 ng·h/mL | 3514 ng·h/mL and 4100 ng·h/mL | 4206 ng/mL and 4836 ng/mL | 1.37 h and 1.50 h | 3.59 h and 4.72 h | 4660 ng/mL | 0.18 h | 4.36 h | 4180 ng·h/mL | 1.44 h | 4930 ng/mL | 4.78 h | 4900 ng·h/mL | 4870 ng·h/mL | 767 ng/mL | 0.25 h | 4.22 h | 665 ng·h/mL | 663 ng·h/mL | T max [2, 3]: 0.05 h; AUC(0-t) [2, 5]: 4160 ng·h/mL; MRT inf [2, 6]: 1.44 h; MRT inf [2, 8]: 1.82 h; Cmax [2, 10]: 707 ng/mL; Tmax [2, 10]: 0.25 h; half-life [2, 10]: 3.84 h; MRT inf [2, 10]: 2.12 h; AUC INF_obs [2, 12]: 469 ng·h/mL and 947 ng·h/mL and 579 ng·h/mL; AUC last [2, 12]: 467 ng·h/mL and 945 ng·h/mL and 576 ng·h/mL; C max [2, 12]: 942 ng/mL and 651 ng/mL; MRT INF_obs [2, 12]: 1.68 h and 1.64 h; T1/2 [2, 12]: 3.85 h and 4.96 h
3 | O=C(NCc1ccccc1)C(=O)[C@H](C[C@@H]1CCNC1=O)NC(=O)[C@H](CC1CCCCC1)NC(=O)c1cc2ccccc2o1 [Example A9, N—((S)-1-(((S)-4-(benzylamino)-3,4-dione-1-((S)-2-oxopyrrolidine-3-yl)but-2-yl)amino)-3-cyclohexyl-1-oxopropan-2-yl)-benzofuran-2-carboxamide] | 1 ± 0.7 nM | 6825 ng·h/mL and 10574 ng·h/mL | 6786 ng·h/mL and 10138 ng·h/mL | 2859 ng/mL and 2364 ng/mL | 2.70 h and 3.19 h and 6.07 h | 3.67 h and 5.11 h | 2910 ng/mL | 0.42 h | 4.02 h | 8360 ng·h/mL | 3.99 h | 3520 ng/mL | 3.28 h | 7670 ng·h/mL | 7650 ng·h/mL | 498 ng/mL | 0.25 h | 1.27 h | 589 ng·h/mL | 584 ng·h/mL | T max [2, 3]: 0.75 h; AUC(0-t) [2, 5]: 8190 ng·h/mL; MRT inf [2, 8]: 1.77 h; Tmax [2, 10]: 0.25 h; half-life [2, 10]: 1.13 h; MRT inf [2, 10]: 1.35 h; AUC INF_obs [2, 12]: 451 ng·h/mL and 1146 ng·h/mL and 171 ng·h/mL; AUC last [2, 12]: 447 ng·h/mL and 1143 ng·h/mL and 163 ng·h/mL; C max [2, 12]: 546 ng/mL and 864 ng/mL and 84 ng/mL; MRT INF_obs [2, 12]: 1.33 h and 2.63 h; T1/2 [2, 12]: 0.91 h and 1.77 h
4 | O=C(NCc1ccccc1)C(=O)[C@H](C[C@@H]1CCNC1=O)NC(=O)[C@H](CC1CCCCC1)NC(=O)c1ccc2ccccc2n1 [Example A42, N—((S)-1-(((S)-4-(benzylamino)-3,4-dione-1-((S)-2-oxopyrrolidine-3-yl)but-2-yl)amino)-3-cyclohexyl-1-oxopropan-2-yl)-quinoline-2-carboxamide] | 3.2 ± 0.6 nM | 10647 ng·h/mL and 11768 ng·h/mL | 10576 ng·h/mL and 11340 ng·h/mL | 3959 ng/mL and 5038 ng/mL | 3.41 h and 4.99 h | 3.67 h and 6.20 h | 4280 ng/mL | 0.25 h | 5.46 h | 12000 ng·h/mL | 4.93 h | 3840 ng/mL | 6.52 h | 13700 ng·h/mL | 13000 ng·h/mL | 858 ng/mL | 0.25 h | 5.81 h | 750 ng·h/mL | 742 ng·h/mL | Tmax [2, 6]: 0.25 h; MRT inf [2, 6]: 6.38 h; MRT inf [2, 8]: 2.3 h; Cmax [2, 10]: 1020 ng/mL; Tmax [2, 10]: 0.25 h; half-life [2, 10]: 4.19 h; AUC(0-inf) [2, 10]: 791 ng·h/mL; AUC(0-t) [2, 11]: 787 ng·h/mL; MRT inf [2, 10]: 1.98 h; AUC INF_obs [2, 12]: 953 ng·h/mL and 506 ng·h/mL; AUC last [2, 12]: 945 ng·h/mL and 494 ng·h/mL; C max [2, 12]: 966 ng/mL and 588 ng/mL; MRT INF_obs [2, 12]: 2.10 h and 2.83 h; T1/2 [2, 12]: 5.52 h and 7.73 h

Reference: patent publication US12152017B2, “Ketoamide compound and preparation method, pharmaceutical composition, and use thereof” (Shanghai Institute of Materia Medica, Chinese Academy of …, priority 2018, dated 2024)
